Assay results reported in patent US20250333410A1, “COMPOUND FOR INHIBITING OR DEGRADING BCL6 AND USE THEREOF IN PHARMACEUTICS” (XIZANG HAISCO PHARMACEUTICAL CO., LTD., priority 2022, published 2025).

Columns and labels:
[1] = molecular target: hERG potassium ion channel (Homo sapiens (Human), UniProt Q12809); experiment: Test for hERG potassium ion channel (manual patch-clamp, CHO cells); type: cell-based; conditions: CHO cells stably expressing hERG, whole cell patch-clamp; read-out: IC50 of inhibitory effects on hERG potassium channel current
Source text: 8. Test for hERG Potassium Ion Channel
Experimental platform: electrophysiological manual patch-clamp system
Cell line: Chinese hamster ovary (CHO) cell lines stably expressing hERG potassium ion channel
Experimental method: in CHO (Chinese Hamster Ovary) cells stably expressing hERG potassium channel, the whole cell patch-clamp technique was used to record hERG potassium channel current at room temperature. The glass microelectrode was made of a glass electrode blank (BF150-86-10, Sutter) by a puller. The tip resistance after filling the liquid in the electrode was about 2-5 MΩ. The glass microelectrode can be connected to the patch-clamp amplifier by inserting the glass microelectrode into an amplifier probe. The clamping voltage and data recording were controlled and recorded by the pClamp 10 software through a computer. The sampling frequency was 10 kHz, and the filtering frequency was 2 kHz. After the whole cell records were obtained, the cells were clamped at −80 mV, and the step voltage that induced the hERG potassium current (IhERG) was depolarized from −80 mV to +20 mV for 2 s, then repolarized to −50 mV, and returned to −80 mV after 1 s. This voltage stimulation was given every 10 s, and the administration process was started after the hERG potassium current was confirmed to be stable (at least 1 minute). The compound was administered for at least 1 minute at each test concentration, and at least 2 cells (n≥2) were tested at each concentration.
Data processing: data analysis processing was carried out by using pClamp 10, GraphPad Prism 5 and Excel software. The inhibition degree of hERG potassium current (peak value of hERG tail current induced at −50 mV) at different compound concentrations was calculated by the following formula: […]
where Inhibition % represents the percentage of inhibition of hERG potassium current by the compound, and I and Io represent the amplitude of hERG potassium current after and before the administration, respectively.
Compound IC50 was calculated using GraphPad Prism 5 software by fitting according to the following equation: […]
Among the equation, X represents the Log value of the tested concentration of the test sample, Y represents the inhibition percentage at the corresponding concentration, and Bottom and Top represent the minimum and maximum inhibition percentage, respectively.

[2] = Pharmacokinetic test in rats; type: in vivo, SD rats; conditions: i.g. 5 mg/kg; for AUC(0-t): male, SD, rat, po, rats plasma
Procedure: 5. Pharmacokinetic Test in Rats
Experimental objective: in this experiment, a single dose of each test compound was administered to SD rats intravenously and intragastrically, and the concentrations of the test compounds in plasma of rats were measured to evaluate the pharmacokinetic characteristics of the test compounds in rats.
Experimental animal: male SD rats, 200-220 g, 6-8 weeks old, 6 rats/compound, purchased from Chengdu Ddossy Experimental Animals Co., Ltd.
Experimental method: on the day of the experiment, the SD rats were randomly grouped according to their body weights. The animals were fasted but with water available for 12 to 14 h one day before the administration, and were fed 4 h after the administration.
Sampling: Before and after the administration, 0.1 mL of blood was taken from the orbits under isoflurane anesthesia and placed in an EDTAK2 centrifuge tube. Centrifugation was carried out at 5000 rpm at 4° C. for 10 min, and the plasma was collected.
The plasma collection time points for IV&PO groups were 0, 5 min, 15 min, 30 min, 1 h, 2 h, 4 h, 7h, and 24 h.
Before analysis and detection, all samples were stored at −60° C. The samples were analyzed quantitatively by LC-MS/MS. PGP-3212J

Bcl6 [3] = molecular target: T1, Bcl6 (Homo sapiens (Human), UniProt P41182); experiment: Bcl-6 protein degradation experiment in Farage cells; type: cell-based; conditions: 24 hours
Procedure: 2. Bcl-6 Protein Degradation Experiment in Farage Cells
(§1) Farage cells purchased from ATCC were placed in an RPMI-1640 complete medium (containing 10% fetal bovine serum, 100 U/mL penicillin and 100 μg/mL streptomycin) and cultured at 37° C. and 5% CO2. The cells in the logarithmic growth phase were collected, and the cell suspension was adjusted to an appropriate density with the culture medium and added to a 6-well cell culture plate at a volume of 1 mL/well. The compounds to be tested were prepared to 2-fold the final concentration, 1 mL of the compounds at different concentrations were added to administration wells, a medium containing 0.2% DMSO was added to control wells, and the plate was incubated at 37° C. for 24 hours. The cells were collected into a 1.5 mL centrifuge tube, 25 μL of RIPA lysis buffer (containing 1× protease inhibitor cocktail) was added, and the cells were lysed on ice for 15 minutes and centrifuged at 12000 rpm/min at 4° C. for 10 minutes. The supernatant was collected and the protein content was determined using the BCA method. The protein sample to be tested was diluted to 0.8 mg/mL, Bcl6 was detected using a fully automated protein expression quantitative analyzer (ProteinSimple), and the internal reference protein was R-actin (both antibodies were from CST). The software (Compass for SW) of the fully automated protein expression quantitative analyzer was used to process the raw data and calculate the peak area and the Bcl6 expression rate relative to the control group. DC50 values were calculated using a four-parameter non-linear fitting model in Graphpad 8.3.0 software.

Bcl6 [4] = molecular target: T1, Bcl6; experiment: Bcl-6 protein degradation experiment in OCI-LY1 cells; type: cell-based; conditions: 24 hours
Procedure: 4. Bcl-6 Protein Degradation Experiment in OCI-LY1 Cells
as §1, with “OCI-LY1” for “Farage”, “DSMZ” for “ATCC”, “IMDM” for “RPMI-1640”, “penicillin,” for “penicillin and”, “streptomycin and 50 µM mercaptoethanol)” for “streptomycin)”, “[…]” for “μL”

[5] = Pharmacokinetic test in mice; type: in vivo, ICR mice; conditions: i.g. 5 mg/kg
Procedure: 3. Pharmacokinetic Test in Mice
1.1 Experimental animal: male ICR mice, 25-30 g, 6 mice/compound, purchased from Chengdu Ddossy Experimental Animals Co., Ltd.
1.2 Experimental design: on the day of the experiment, the ICR mice were randomly grouped according to their body weights. The animals were fasted but with water available for 12 to 14 h one day before the administration, and were fed 4 h after the administration.

Sequence of hERG potassium ion channel (Q12809 whole entry): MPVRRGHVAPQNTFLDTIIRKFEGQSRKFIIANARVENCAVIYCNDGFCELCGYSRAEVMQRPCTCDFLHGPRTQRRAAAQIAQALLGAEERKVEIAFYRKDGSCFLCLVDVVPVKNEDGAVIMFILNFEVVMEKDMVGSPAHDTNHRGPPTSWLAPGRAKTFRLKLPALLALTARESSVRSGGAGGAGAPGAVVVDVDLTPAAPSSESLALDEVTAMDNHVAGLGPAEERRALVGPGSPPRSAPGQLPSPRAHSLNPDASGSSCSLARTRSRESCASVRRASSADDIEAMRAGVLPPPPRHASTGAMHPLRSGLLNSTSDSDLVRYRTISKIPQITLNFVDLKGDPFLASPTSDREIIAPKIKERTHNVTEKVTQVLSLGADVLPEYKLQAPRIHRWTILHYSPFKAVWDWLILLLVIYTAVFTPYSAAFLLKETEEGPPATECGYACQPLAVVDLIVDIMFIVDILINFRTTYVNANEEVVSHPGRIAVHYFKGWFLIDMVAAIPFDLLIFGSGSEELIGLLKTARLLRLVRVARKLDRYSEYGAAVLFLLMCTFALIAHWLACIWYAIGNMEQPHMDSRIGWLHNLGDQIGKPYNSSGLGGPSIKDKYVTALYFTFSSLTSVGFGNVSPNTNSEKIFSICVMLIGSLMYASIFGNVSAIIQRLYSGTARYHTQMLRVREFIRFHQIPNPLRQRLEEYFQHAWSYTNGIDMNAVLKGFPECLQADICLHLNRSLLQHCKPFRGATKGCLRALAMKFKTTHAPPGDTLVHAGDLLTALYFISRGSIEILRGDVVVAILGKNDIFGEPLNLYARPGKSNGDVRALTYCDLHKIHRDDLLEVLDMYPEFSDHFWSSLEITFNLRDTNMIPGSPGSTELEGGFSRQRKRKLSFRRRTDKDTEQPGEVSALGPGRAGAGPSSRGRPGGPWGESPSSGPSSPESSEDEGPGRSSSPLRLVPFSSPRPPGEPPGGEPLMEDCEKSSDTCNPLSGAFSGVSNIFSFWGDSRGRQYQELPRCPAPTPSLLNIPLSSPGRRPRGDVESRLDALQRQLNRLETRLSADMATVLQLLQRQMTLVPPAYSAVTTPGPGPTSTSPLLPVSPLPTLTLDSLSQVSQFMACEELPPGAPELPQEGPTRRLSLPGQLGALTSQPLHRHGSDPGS

CNC(=O)COc1cc2cc(Nc3nc(N4CCN(CC5CCN(c6ccc(C7CCC(=O)NC7=O)cc6)CC5)CC4)ncc3Cl)ccc2n(C)c1=O (stereo not shown) [Compound 8]
IC50 [1]: > 40000 nM
AUC(0-t) [2]: > 1000 ng·h/mL
F ([2]; rats): >50%
DC50 (Bcl6 [3]): < 10 nM
DC50 (Bcl6 [4]): < 100 nM
DC50 (Bcl6 [4]; listed as compound 8): < 5 nM
AUC(0-t) ([5]; male, ICR, mouse, po, mice plasma): > 1000 ng·h/mL
F ([5]; mice): >50%

[2H]C([2H])([2H])NC(=O)COc1cc2cc(Nc3nc(N4CCC(O[C@H]5C[C@H](N6CCN7c8cc(F)c(C9CCC(=O)NC9=O)cc8CC[C@H]7C6)C5)CC4)ncc3Cl)ccc2n(C([2H])([2H])[2H])c1=O (stereo partly shown) [Trifluoroacetate of compound 71]
IC50 [1]: > 40000 nM
AUC(0-t) [2]: > 1000 ng·h/mL
DC50 (Bcl6 [3]): < 10 nM

[2H]C([2H])([2H])NC(=O)COc1cc2cc(Nc3nc(N4CCC(O[C@H]5C[C@H](N6CCN7c8cc(F)c(C9CCC(=O)NC9=O)cc8CC[C@H]7C6)C5)CC4)ncc3Cl)ccc2n(C)c1=O (stereo partly shown) [Trifluoroacetate of compound 72]
IC50 [1]: > 40000 nM
AUC(0-t) [2]: > 1000 ng·h/mL
DC50 (Bcl6 [3]): < 10 nM

[2H]C([2H])([2H])n1c(=O)c(OCC(=O)NC)cc2cc(Nc3nc(N4CCC(O[C@H]5C[C@H](N6CCN7c8cc(F)c(C9CCC(=O)NC9=O)cc8CC[C@H]7C6)C5)CC4)ncc3Cl)ccc21 (stereo partly shown) [Trifluoroacetate of compound 73]
IC50 [1]: > 40000 nM
AUC(0-t) [2]: > 1000 ng·h/mL
DC50 (Bcl6 [3]): < 10 nM

CCn1c(=O)c(OCC(=O)NC)cc2cc(Nc3nc(N4CCC(O[C@H]5C[C@H](N6CCN7c8cc(F)c(C9CCC(=O)NC9=O)cc8CC[C@@H]7C6)C5)CC4)ncc3Cl)ccc21 (stereo partly shown) [Trifluoroacetate of compound 74]
AUC(0-t) [2]: > 1000 ng·h/mL
DC50 (Bcl6 [3]): < 10 nM

CNC(=O)COc1cc2cc(Nc3nc(N4CCC(O[C@H]5C[C@H](N6CCn7c(cc8cc(C9CCC(=O)NC9=O)c(F)cc87)C6)C5)CC4)ncc3Cl)ccc2n(C(C)C)c1=O (stereo partly shown) [Trifluoroacetate of compound 78]
IC50 [1]: > 40000 nM
AUC(0-t) [2]: > 1000 ng·h/mL
DC50 (Bcl6 [3]): < 10 nM
